The text below walks through data of PubChem BioAssay (NCI).

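Grown in 96-well plates, cells were treated for 48 hours with each compound at five concentrations. Insufficient inhibition: endpoint recorded as highest concentration tested. GI50 = concentration required for 50% inhibition of growth. Definition used: TGI = concentration required for complete inhibition of growth.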

Test systems include COLO 205 colon; HCT-116 colon; NCI-H23 lung; OVCAR-3 ovarian; OVCAR-8 ovarian; RPMI-8226 leukemia; EKVX NSCLC.
Assay in all cases: NCI anticancer screen, dose series, 48 h

`CCC[CH2][Sn]1([CH2]CCC)[S]CC[N]1S(=O)(=O)c1ccc(C)cc1`: the GI50 in the test on COLO 205 colon was 1.63 µM; in the test with HCT-116 colon it was 1.42 µM; in the test on NCI-H23 lung, 0.638 µM; in the test with OVCAR-3 ovarian it was 1.59 µM; in the test on OVCAR-8 ovarian it was 1.63 µM; with RPMI-8226 leukemia, 0.386 µM. The TGI in the test with COLO 205 colon turned out to be 3.09 µM; with HCT-116 colon, 2.81 µM; with NCI-H23 lung it was 1.94 µM; with OVCAR-3 ovarian, 2.93 µM; with OVCAR-8 ovarian, 4.16 µM; in the test with RPMI-8226 leukemia, 2.01 µM.
On to `COc1ccc2c(c1)CN1CCc3c(cc(OC)c(OC)c3OC)C1C2` (stereo not drawn), for which the TGI in the test with COLO 205 colon, with EKVX NSCLC, in the test with HCT-116 colon, with NCI-H23 lung, in the test with OVCAR-3 ovarian and in the test with OVCAR-8 ovarian was greater than 100 µM each time. In the test on RPMI-8226 leukemia, this molecule registered a TGI greater than 100 µM.
Consider `C[C@H]1C=C2C(=O)O[C@H]3CC[C@@H](C1)[C@@]23O`, for which the TGI in the test on COLO 205 colon came to 12.5 µM; in the test with EKVX NSCLC, 8.36 µM; in the test with HCT-116 colon, 9.24 µM; with NCI-H23 lung, 9.53 µM; with OVCAR-3 ovarian, 16.9 µM; in the test on OVCAR-8 ovarian, 13.8 µM. The same molecule had a TGI in the test on RPMI-8226 leukemia greater than 100 µM.
As to `CC(=O)Oc1ccc2c(c1)C(=O)c1nc(C)c(C)nc1C2=O`, the TGI is greater than 100 µM in the test with COLO 205 colon; greater than 78.6 µM with EKVX NSCLC; greater than 100 µM in the test on HCT-116 colon; greater than 100 µM in the test with NCI-H23 lung; 59.1 µM in the test on OVCAR-3 ovarian; greater than 100 µM with OVCAR-8 ovarian. In addition, the TGI in the test on RPMI-8226 leukemia was greater than 100 µM.
On to `COC(=O)C1CCc2nnc(-c3ccccc3)n21` (stereo not drawn), for which the TGI in the test on COLO 205 colon, in the test on EKVX NSCLC, with HCT-116 colon, in the test with NCI-H23 lung, in the test with OVCAR-3 ovarian and in the test with OVCAR-8 ovarian was greater than 100 µM each time. The molecule further came in with a TGI in the test with RPMI-8226 leukemia greater than 100 µM.
`CC[PH+](CC)CC.[Cl][Au]`: the GI50 with COLO 205 colon is 1.85 µM; in the test with EKVX NSCLC, 1.42 µM; with HCT-116 colon, 1.84 µM; with NCI-H23 lung it was 1.68 µM; with OVCAR-3 ovarian, 1.89 µM; in the test with OVCAR-8 ovarian it was 2.19 µM. The GI50 in the test with RPMI-8226 leukemia was 1.03 µM. For the same molecule, the TGI with COLO 205 colon worked out at 5.79 µM; in the test on EKVX NSCLC, 2.91 µM; in the test with HCT-116 colon it was 3.59 µM; in the test with NCI-H23 lung, 3.42 µM; in the test with OVCAR-3 ovarian, 3.42 µM; in the test on OVCAR-8 ovarian, 5.21 µM. The molecule also gave a TGI in the test with RPMI-8226 leukemia of 3.84 µM.
`C=C1C(OC(C)=O)CC(OC(C)=O)C2(C)C(OC(C)=O)C(OC(C)=O)C3=C(C)C(OC(=O)/C=C/c4ccccc4)CC(C(OC(C)=O)C12)C3(C)C` (stereo not drawn): the TGI in the test with COLO 205 colon, with HCT-116 colon, in the test with OVCAR-8 ovarian and in the test with RPMI-8226 leukemia was greater than 100 µM each time.
On to `CNC(=O)CN(CC(=O)O)C(=O)NC`, for which the TGI in the test on COLO 205 colon, with EKVX NSCLC, with NCI-H23 lung, with OVCAR-3 ovarian, with OVCAR-8 ovarian and with RPMI-8226 leukemia was greater than 100 µM in each case.
For `C=C1C[C@@H]2C[C@@H](C)CC(O)[C@]2(CCCN)C1O` (stereo partly drawn), the TGI in the test on COLO 205 colon, with EKVX NSCLC, with HCT-116 colon, in the test with NCI-H23 lung, with OVCAR-3 ovarian and with OVCAR-8 ovarian was greater than 100 µM each time. In the test on RPMI-8226 leukemia, this molecule displayed a TGI greater than 100 µM.
On to `C1=CCCC=CCC1.C[PH+](C)C.C[PH+](C)C.C[PH+](C)C.[Cl-].[Ir]`, for which the GI50 was 76.1 µM in the test on EKVX NSCLC; 42.9 µM in the test on HCT-116 colon; greater than 100 µM with NCI-H23 lung; 29.6 µM in the test on OVCAR-3 ovarian; 35.2 µM in the test on OVCAR-8 ovarian. Also, the TGI in the test with EKVX NSCLC was greater than 100 µM; in the test with HCT-116 colon, greater than 100 µM; with NCI-H23 lung it was greater than 100 µM; in the test on OVCAR-3 ovarian, 77.4 µM; with OVCAR-8 ovarian, greater than 100 µM.
`O=C1Nc2cc(F)ccc2C1=O`: the TGI in the test on COLO 205 colon, with EKVX NSCLC, in the test with NCI-H23 lung, in the test on OVCAR-8 ovarian and with RPMI-8226 leukemia was greater than 100 µM in each case.
As to `O/N=C/c1ccc(O)c(O)c1`, the TGI with COLO 205 colon, with EKVX NSCLC, in the test with HCT-116 colon, in the test on NCI-H23 lung, with OVCAR-3 ovarian and in the test on OVCAR-8 ovarian was greater than 100 µM each time.
As for `COc1ccc2c(c1)CCc1c-2n[nH]c1-c1[nH]nc2c1CCc1cc(OC)ccc1-2`, the TGI in the test with COLO 205 colon, with EKVX NSCLC, with HCT-116 colon, in the test on NCI-H23 lung and in the test with OVCAR-8 ovarian was greater than 100 µM throughout.
Consider `NC(=O)c1ccc(Cl)c([N+](=O)[O-])c1`, for which the TGI in the test on COLO 205 colon, with EKVX NSCLC, in the test on HCT-116 colon, in the test on NCI-H23 lung, in the test on OVCAR-3 ovarian and in the test with OVCAR-8 ovarian was greater than 100 µM in each case.
